Tests used:
[1] = system: CV-1P (African monkey green kidney fibroblasts cells); assay: In vitro transfection of plasmid DNA, β-galactosidase activity per well; assay type: cell-based; conditions: CVI-P; for transfection, result in words: entry spans the charge ratios 8-0.5
Procedure: Transfer of plasmid DNA by various compounds was investigated by using CV-1P (African monkey green kidney fibroblasts cells) and D407 (human retinal pigment epithelial) cells.
The cells were cultured in Dulbecco's modified Eagle's medium (DMEM, Gibco), supplemented with 10% fetal bovine serum (FBS), penicillin/streptomycin (100 units/ml and 100 μg/ml respectively) and 2 mM L-glutamine for D 407 cell line. Cell cultures were maintained at 37° C. in a 7% CO2/air incubator. The cells were collected, counted and seeded in growth medium (100 μl) into 96-well culture plate, 20 000 cells per well. One day later the medium was replaced with fresh medium without serum (150 μl)
In the case of confluent CV1-P cells the medium (with of without serum) was changed on fourth day of cell growth before the transfection.
The complexes at different derivative/DNA charge ratios for transfection procedure were prepared just before use in 50 mM MES—50 mM HEPES—75 mM NaCl buffer, pH 7.2 in separate 96 well plates. One hour after changing the serum-free medium with 10% serum the complexes were added to the cells at […]. Dose of DNA per well was 0.6 μg. After 5 h the complexes were removed, the cells were washed with PBS, and the normal growth medium was added. After 45 h of incubation at 37° C. the cells were lysed with 2% Triton X 100, twice deep frozen and the β-galactosidase activity in each well was determined spectrofotometrically with ELx800 automated microplate reader (Bio-Tex Instruments Inc., Winooski, Vt. USA) by monitoring the hydrolysis of o-nitrophenylgalactopyranoside (oNPG) at 405 nm. Purified β-galactosidase from E.coli was used to construct a standard curve and to calculate […] activity in the transfected cells. […] Transfection efficiencies are given as percentage in comparison to transfection efficiency of Lipofectin^R.

plasmid DNA = assay: DNA condensation/complexation, EtBr displacement assay; assay type: binding
Procedure: The ability of the cationic amphiphiles to condense DNA was assessed with an EtBr displacement assay. Briefly, in 96 well plates plasmid DNA (0.6 μg per well) was reacted with 0.002% EtBr in 20 mM HEPES—150 mM NaCl buffer, pH 7.4 and fluorescence intensity was measured at 530 nm (excitation) and 590 nm (emission). Intercalation of EtBr molecules between the base pairs of the DNA double helix results in increased fluorescence signal. Immediately thereafter, the cationic liposomes were added to form complexes at different +/−charge ratios and the quenching of fluorescence intensity of EtBr was monitored. Condensation of DNA upon complexation with liposomes results in the displacement of EtBr from DNA and in decreased fluorescence signal. Fluorescence was measured using FL 500 microplate fluorescence reader (Bio-Tek Instruments Inc., Winooski, Vt., USA).
The values are expressed as percentage of the maximum fluorescence signal when EtBr bound to DNA in the absence of an amphiphile. Each data point is from at least triplicate experiment ±S.D.

CVI-P cells = assay: Cytotoxicity of amphiphile/DNA complexes, percentage of survived cells; conditions: for cell viable: 'at +/−', charge ratio not given
[2] = amphiphile/DNA +/− charge ratio 0.5
[3] = amphiphile/DNA +/− charge ratio 1
[4] = amphiphile/DNA +/− charge ratio 2
[5] = amphiphile/DNA +/− charge ratio 4
[6] = amphiphile/DNA +/− charge ratio 8

SMILES: Br.CCCCCCCCCCCCCCCCOC(=O)C1=C(C)NC(C)=C(C(=O)OCCCCCCCCCCCCCCCC)C1c1ccc[n+](CC(=O)c2ccccc2)c1.[Br-]
- melting point: 148 to 150 °C

SMILES: Br.CCOC(=O)C1=C(C)NC(C)=C(C(=O)OCC)C1c1cc[n+](CC(=O)c2ccccc2)cc1.[Br-]
- melting point: 224 to 227 °C

SMILES: Br.CCCCCCCCCCCCCCCC[n+]1cccc(C2C(C(=O)OC(C)CC)=C(C)NC(C)=C2C(=O)OC(C)CC)c1.[Br-] (centres unmarked)
- melting point: 159 to 165 °C

SMILES: Br.CCOC(=O)C[n+]1cccc(C2C(C(=O)OC)=C(C)NC(C)=C2C(=O)OC)c1.[Br-]
- melting point: 180 °C (dec.)

SMILES: Br.CCOCCOC(=O)C1=C(C)NC(C)=C(C(=O)OCCOCC)C1c1ccc[n+](CC(=O)OCC)c1.[Br-]
- melting point: 163 to 165 °C

SMILES: Br.CCCCCCCCCCCCCCCCOC(=O)C1=C(C)NC(C)=C(C(=O)OCCCCCCCCCCCCCCCC)C1c1ccc[n+](CC(=O)OCC)c1.[Br-]
- melting point: 99 to 102 °C

SMILES: CCCCOC(=O)C1=C(C)NC(C)=C(C(=O)OCCCC)C1c1ccc[n+](C)c1.I.[I-] [Example 2a, 3′,5′-Bis(butoxycarbonyl)-1′,4′-dihydro-1,2′,6′-trimethyl-3,4′-bipyridinium iodide]
- melting point: 161 to 164 °C

SMILES: CC1=C(C(=O)OC(C)(C)C)C(c2ccc[n+](C)c2)C(C(=O)OC(C)(C)C)=C(C)N1.I.[I-] [Example 2c, 3′,5′-Bis[(1,1-dimethylethoxy)carbonyl]-1′,4′-dihydro-1,2′,6′-trimethyl-3,4′-bipyridinium iodide]
- melting point: 166 to 169 °C

SMILES: CC1=C(C(=O)OC2CC3CCC2(C)C3(C)C)C(c2cc[n+](C)cc2)C(C(=O)OC2CC3CCC2(C)C3(C)C)=C(C)N1.I.[I-] (centres unmarked) [Example 2u, 3′,5′-Bis(bornyloxycarbonyl)-1′,4′-dihydro-1,2′,6′-trimethyl-4,4′-bipyridinium iodide]
- melting point: 270 °C (dec.)

SMILES: CCOC(=O)C1=C(C)NC(C)=C(C(=O)OCC)C1c1cccc[n+]1C.I.[I-] [Example 2v, 3′,5′-Bis(ethoxycarbonyl)-1′,4′-dihydro-1,2′,6′-trimethyl-2,4′-bipyridinium iodide]
- melting point: 197 to 199 °C

SMILES: CCCCCCC[n+]1cccc(C2C(C(=O)OCC)=C(C)NC(C)=C2C(=O)OCC)c1.I.[I-] [Example 5a, 3′,5′-Bis(ethoxycarbonyl)-1-heptyl-1′,4′-dihydro-2′,6′-dimethyl-3,4′-bipyridinium iodide]
- melting point: 165 to 167 °C

SMILES: CCCCCCCCCCCCCCCC(=O)OCCCOC(=O)C1=C(C)NC(C)=C(C(=O)OCCCOC(=O)CCCCCCCCCCCCCCC)C1c1ccc[n+](C)c1.I.[I-] [III, 1′,4′-Dihydro-1,2′,6′-trimethyl-3′,5′-bis[(3-palmitoyloxypropoxy)carbonyl]-3,4′-bipyridinium iodide]
- transfection, result in words [1]: No signal
- complexation, percentage of the maximum fluorescence signal when EtBr bound to DNA in the absence of an amphiphile (plasmid DNA; [2]): 93,2%
- complexation, percentage of the maximum fluorescence signal when EtBr bound to DNA in the absence of an amphiphile (plasmid DNA; [3]): 83,2%
- complexation, percentage of the maximum fluorescence signal when EtBr bound to DNA in the absence of an amphiphile (plasmid DNA; [4]): 76,7%
- complexation, percentage of the maximum fluorescence signal when EtBr bound to DNA in the absence of an amphiphile (plasmid DNA; [5]): 74,6%
- complexation, percentage of the maximum fluorescence signal when EtBr bound to DNA in the absence of an amphiphile (plasmid DNA; [6]): 74,7%
- melting point: 143 to 146 °C
- cytotoxicity as a percentage of survived cells (CVI-P cells; [2]): 87,86%
- cytotoxicity as a percentage of survived cells (CVI-P cells; [3]): 81,86%
- cytotoxicity as a percentage of survived cells (CVI-P cells; [4]): 72,04%
- cytotoxicity as a percentage of survived cells (CVI-P cells; [5]): 54,84%
- cytotoxicity as a percentage of survived cells (CVI-P cells; [6]): 68,47%

SMILES: CCCOCCOC(=O)C1=C(C)NC(C)=C(C(=O)OCCOCCC)C1c1ccc[n+](C)c1.I.[I-] [VIII, 1′,4′-Dihydro-1,2′,6′-trimethyl-3′,5′-bis[(2-propoxyethoxy)-carbonyl]-3,4′-bipyridinium iodide]
- melting point: 59 to 61 °C

SMILES: CC1=C(C(=O)OC2CC(C)CCC2C(C)C)C(c2ccc[n+](C)c2)C(C(=O)OC2CC(C)CCC2C(C)C)=C(C)N1.I.[I-] (centres unmarked) [X, 1′,4′-Dihydro-3′,5′-bis(menthyloxycarbonyl)-1,2′,6′-trimethyl-3,4′-bipyridinium iodide]
- transfection, result in words [1]: No signal
- melting point: 156 to 159 °C
- cell viable (CVI-P cells): 50%

SMILES: CC1=C(C(=O)OC2CC3CCC2(C)C3(C)C)C(c2ccc[n+](C)c2)C(C(=O)OC2CC3CCC2(C)C3(C)C)=C(C)N1.I.[I-] (centres unmarked) [XI, 3′,5′-Bis(bornyloxycarbonyl)-1′,4′-dihydro-1,2′,6′-trimethyl-3,4′-bipyridinium iodide]
- transfection, result in words [1]: No signal
- melting point: 271 to 274 °C
- cell viable (CVI-P cells): 50%

SMILES: Br.CCCCCCCCC[n+]1cccc(C2C(C(=O)OCC)=C(C)NC(C)=C2C(=O)OCC)c1.[Br-] [XIII, 3′,5′-Bis(ethoxycarbonyl)-1′,4′-dihydro-2′,6′-dimethyl-1-nonyl-3,4′-bipyridinium bromide]
- transfection, result in words [1]: No signal
- melting point: 142 to 143 °C (dec.)

SMILES: Br.CCCCCCCCCCCCCCOC(=O)C1=C(C)NC(C)=C(C(=O)OCCCCCCCCCCCCCC)C1c1ccc[n+](CCCCCCCCC)c1.[Br-] [XIV, 1′,4′-Dihydro-2′,6′-dimethyl-1-nonyl-3′,5′-bis(tetradecyloxycarbonyl)-3,4′-bipyridinium bromide]
- transfection efficiency [1, 2]: 0,75 β-galactosidase units per well
- transfection efficiency [1, 3]: 3,38 β-galactosidase units per well
- transfection efficiency [1, 4]: 1,5 β-galactosidase units per well
- complexation, percentage of the maximum fluorescence signal when EtBr bound to DNA in the absence of an amphiphile (plasmid DNA; [2]): 100%
- complexation, percentage of the maximum fluorescence signal when EtBr bound to DNA in the absence of an amphiphile (plasmid DNA; [3]): 96,2%
- complexation, percentage of the maximum fluorescence signal when EtBr bound to DNA in the absence of an amphiphile (plasmid DNA; [4]): 91,03%
- complexation, percentage of the maximum fluorescence signal when EtBr bound to DNA in the absence of an amphiphile (plasmid DNA; [5]): 88,9%
- complexation, percentage of the maximum fluorescence signal when EtBr bound to DNA in the absence of an amphiphile (plasmid DNA; [6]): 93,7%
- melting point: 124 to 126 °C (dec.)
- cytotoxicity as a percentage of survived cells (CVI-P cells; [2]): 103,98%
- cytotoxicity as a percentage of survived cells (CVI-P cells; [3]): 93,16%
- cytotoxicity as a percentage of survived cells (CVI-P cells; [4]): 51,04%
- cytotoxicity as a percentage of survived cells (CVI-P cells; [5]): 34,5%
- cytotoxicity as a percentage of survived cells (CVI-P cells; [6]): 44,62%

SMILES: Br.CCCCCCCCCCCCCCCC[n+]1cccc(C2C(C(=O)OCC)=C(C)NC(C)=C2C(=O)OCC)c1.[Br-] [XV, 3′,5′-Bis (ethoxycarbonyl)-1-hexadecyl-1′,4′-dihydro-2′,6′-dimethyl-3,4′-bipyridinium bromide]
- transfection, result in words [1]: No signal
- melting point: 135 to 136 °C

SMILES: Br.CCCCCCCCCCCCCCCC[n+]1cccc(C2C(C(=O)OCCOCCC)=C(C)NC(C)=C2C(=O)OCCOCCC)c1.[Br-] [XVI, 1-Hexadecyl-1′,4′-dihydro-2′,6′-dimethyl-3′,5′-bis[(2-propoxyethoxy)carbonyl]-3,4′-bipyridinium bromide]
- transfection, result in words [1]: No signal
- melting point: 93 to 96 °C
- cell viable (CVI-P cells): 50%

SMILES: Br.CCCCCCCCCCCCCCCC[n+]1cccc(C2C(C(=O)OC3CC(C)CCC3C(C)C)=C(C)NC(C)=C2C(=O)OC2CC(C)CCC2C(C)C)c1.[Br-] (centres unmarked) [XVIII, 1-Hexadecyl-1′,4′-dihydro-3′,5′-bis(menthyloxycarbonyl)-2′,6′-dimethyl-3,4′-bipyridinium bromide]
- complexation, percentage of the maximum fluorescence signal when EtBr bound to DNA in the absence of an amphiphile (plasmid DNA; [2]): 97,5%
- complexation, percentage of the maximum fluorescence signal when EtBr bound to DNA in the absence of an amphiphile (plasmid DNA; [3]): 90,8%
- complexation, percentage of the maximum fluorescence signal when EtBr bound to DNA in the absence of an amphiphile (plasmid DNA; [4]): 82,6%
- complexation, percentage of the maximum fluorescence signal when EtBr bound to DNA in the absence of an amphiphile (plasmid DNA; [5]): 78,5%
- complexation, percentage of the maximum fluorescence signal when EtBr bound to DNA in the absence of an amphiphile (plasmid DNA; [6]): 79,6%
- melting point: 115 to 117 °C
- cytotoxicity as a percentage of survived cells (CVI-P cells; [2]): 85,15%
- cytotoxicity as a percentage of survived cells (CVI-P cells; [3]): 83,94%
- cytotoxicity as a percentage of survived cells (CVI-P cells; [4]): 76,51%
- cytotoxicity as a percentage of survived cells (CVI-P cells; [5]): 9,08%
- cytotoxicity as a percentage of survived cells (CVI-P cells; [6]): 3,05%

From patent US20030064954A1, “Cationic amphiphilic 1,4-dihydropyridine derivatives useful for delivery of nucleotide containing compounds” (priority 2000, published 2003)
